Laboratory results from ChEMBL document CHEMBL5604063, “ASAP - DENV-2 NS2B-NS3 protease fluorescence dose response” (2024).
“And” between values parts separate entries of the source, which are not always exact repeats. Identical values can stand only once.

Key:
[1] = biological target: T1, Genome polyprotein (dengue virus type 2, UniProt P29990); format: functional, Thailand/16681/1984
[2] = biological target: T1, Genome polyprotein; format: functional, Thailand/16681/1984; remark: listed apart in the source

T1 sequence (P29990 1346-1475 limits assumed): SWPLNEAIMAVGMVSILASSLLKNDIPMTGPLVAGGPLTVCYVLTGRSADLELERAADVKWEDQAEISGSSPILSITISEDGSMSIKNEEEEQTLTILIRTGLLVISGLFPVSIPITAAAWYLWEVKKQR
T1 sequence (P29990 1476-2093 limits assumed): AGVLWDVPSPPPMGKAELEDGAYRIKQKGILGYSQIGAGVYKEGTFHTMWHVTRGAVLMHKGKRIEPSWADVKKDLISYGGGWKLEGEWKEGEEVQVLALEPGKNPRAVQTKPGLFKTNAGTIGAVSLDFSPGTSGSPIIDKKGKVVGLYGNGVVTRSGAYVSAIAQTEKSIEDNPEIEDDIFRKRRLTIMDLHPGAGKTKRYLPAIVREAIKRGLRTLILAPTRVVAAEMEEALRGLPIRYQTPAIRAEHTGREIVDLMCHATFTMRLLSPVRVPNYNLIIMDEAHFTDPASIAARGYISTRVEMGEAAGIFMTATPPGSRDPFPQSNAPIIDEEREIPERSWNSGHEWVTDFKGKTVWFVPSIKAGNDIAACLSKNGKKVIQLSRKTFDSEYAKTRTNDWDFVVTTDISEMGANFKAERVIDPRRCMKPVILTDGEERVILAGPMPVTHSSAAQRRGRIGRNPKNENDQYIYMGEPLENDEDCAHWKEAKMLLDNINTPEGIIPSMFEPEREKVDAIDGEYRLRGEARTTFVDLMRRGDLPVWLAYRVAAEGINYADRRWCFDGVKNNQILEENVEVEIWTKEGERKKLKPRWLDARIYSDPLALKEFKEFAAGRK

| SMILES | IC50 [1] | IC50 [2] |
| --- | --- | --- |
| NCCc1cccc(-c2cccc([C@@H](NC(=O)OCc3ccccc3)C(=O)Nc3cccc(CN)c3)c2)c1 | > 100 µM | 33.6 µM |
| CNC(=O)[C@H](Nc1cccc(C2(C(=O)O)CCC2)c1)c1cc(Cl)cc(C2CC2)c1 | > 100 µM | > 99.5 µM |
| NCc1cccc(NC(=O)c2cc(C(F)(F)F)cnc2N2CCOCC2)c1 | > 100 µM | > 99.5 µM |
| CC[C@H](Cc1nn[nH]n1)c1ccc(N[C@H](C(=O)NC)c2cc(Cl)cc(NC(=O)OCc3ccccc3)c2)cc1 | 15.4 µM and 25.1 µM | 29.2 µM |
| CC(C)(C#N)c1cc(C(=O)Nc2cccc(CN)c2)cc(C(F)(F)F)c1 | > 100 µM | > 99.5 µM |
| CNC(=O)[C@H](Nc1cc(CNC(=O)OC(C)(C)C)cc(C(=O)O)c1)c1cc(Cl)cc(C2CC2)c1 | > 100 µM | > 99.5 µM |
| O=C([C@H](Nc1ccc2c(c1)CNC2)c1cc(Cl)cc(C2CC2)c1)N1CCOCC1 | > 100 µM | > 99.5 µM |
| Cc1cc(C(=O)Nc2cccc(CN)c2)cc(NCC(F)(F)F)n1 | > 100 µM | > 99.5 µM |
| CCc1nc2c(C(=O)Nc3ccc4c(c3)CNC4)cc(Br)cc2[nH]1 | 25.4 µM and > 100 µM | 24.7 µM |
| O=C(Nc1cccc(-n2nn[nH]c2=O)c1)c1cc(Cl)cc2c1CCC2 | > 100 µM | > 99.5 µM |
| CC(C)(C)OC(=O)N1Cc2ccc(NC(=O)c3ccc4c(Br)csc4c3)cc2C1 | > 100 µM | > 99.5 µM |
| NCc1cccc(NC(=O)[C@@H](NC(=O)OCc2ccccc2)C2CCN(S(=O)(=O)[C@H]3CCOC3)CC2)c1 | > 100 µM | > 99.5 µM |
| NCc1cc(NC(=O)c2cc(Cl)cc(NC(=O)OCc3ccccc3)c2)cc(-c2ccc(OCC(=O)O)nc2)c1 | > 100 µM | > 99.5 µM |
| O=C(O)c1cc2cc(-c3cccc([C@H]4CNCCO4)c3)ccc2[nH]1 | > 100 µM | > 99.5 µM |
| COc1ccc(OC)c([C@H]2CCCN2C(=O)Nc2ccc3c(c2)CNC3)c1 | > 100 µM | > 99.5 µM |
| NCc1cccc(NC(=O)[C@H]2COCC3(CCC3)O2)c1 | > 100 µM | > 99.5 µM |
| O=C1OCc2ccc(NC(=O)c3cc(F)cc4c3CCNC4)cc21 | > 100 µM | > 99.5 µM |
| COC(=O)C(C)(C)NC(=O)[C@H](Nc1ccc2c(c1)CNC2)c1cc(Cl)cc(C2CC2)c1 | > 100 µM | > 99.5 µM |
| O=C(Nc1cc(Cl)cc(C(=O)Nc2ccc([C@H]3CNCCO3)cc2)c1)OCc1ccccc1 | > 100 µM | > 99.5 µM |
| c1nc(C2CCN(Cc3cc(C4CCOCC4)[nH]n3)CC2)cs1 | > 100 µM | > 99.5 µM |
| NCc1cc(F)cc(NC(=O)c2cc(Cl)cc(NC(=O)OCc3ccccc3)c2)c1 | > 100 µM | > 99.5 µM |

| SMILES | IC50 [1] | IC50 [2] |
| --- | --- | --- |
| N#Cc1cc(Cl)cc(-c2ccc3[nH]c(C(=O)O)cc3c2)c1 | > 100 µM and 82.1 µM | > 99.5 µM |
| N#Cc1cccc(-c2nc3c(C(=O)Nc4cccc(F)c4)cc(Cl)cc3[nH]2)c1 | > 100 µM | > 99.5 µM |
| O=C1Cc2c(cccc2C(=O)Nc2nc([C@H]3CCCOC3)cs2)N1 | > 100 µM | > 99.5 µM |
| O=C(Nc1ccc2c(c1)CNC2)c1cc(Br)cc2ccccc12 | > 100 µM | > 99.5 µM |
| Cc1cc(C(=O)Nc2ccc3c(c2)CNC3)cc2nn[nH]c12 | > 100 µM | > 99.5 µM |
| CC(C)NC(=O)[C@H](Nc1ccc2c(c1)CN(C)C2(C)C)c1cc(Cl)cc2[nH]ncc12 | 28.2 µM | 98.9 µM |
| NCc1cccc(NC(=O)[C@H](NC(=O)OCc2ccccc2)c2cccc(-c3ccc4c(c3)CC(=O)N4)c2)c1 | > 100 µM | 16.2 µM and 7.19 µM |
| NCc1cccc(NC(=O)[C@H](NC(=O)OCc2ccccc2)C2CCN(C(=O)C3CCCCC3)CC2)c1 | > 100 µM | > 99.5 µM |
| NCc1cccc([C@@H]2C[C@H]2c2cc(Cl)cc(NC(=O)OCc3ccccc3)c2)c1 | > 100 µM | 30.3 µM and 50.1 µM |
| O=C(Nc1ccc2c(c1)CNC2)c1cc(Cl)ccc1OC1CCCC1 | > 100 µM | > 99.5 µM |
| CCn1ncc2c(C(=O)Nc3ccc4c(c3)CNC4)cc(C)nc21 | > 100 µM | > 99.5 µM |
| CCNC(=O)c1ccnc(NC(=O)c2cc(C3CC3)n(C)c2C)c1 | > 100 µM | > 99.5 µM |
| O=C(NCCc1nc2ccccc2[nH]1)c1cc2ccc(F)cc2s1 | > 100 µM | > 99.5 µM |
| N[C@@H](CCO)c1cccc(NC(=O)c2cc(Cl)cc(NC(=O)OCc3ccccc3)c2)c1 | > 100 µM | > 99.5 µM |
| O=C(Nc1ccc2c(c1)CCCN2)c1cc(Cl)cc2[nH]ncc12 | > 100 µM | > 99.5 µM |
| N#Cc1cc(-c2ccc3[nH]c(C(=O)O)cc3c2)cc(N2CCCC2)c1 | > 100 µM | 63.4 µM |
| O=C(Nc1ccc2c(c1)CNC2)c1ccc2[nH]cnc2c1 | > 100 µM | > 99.5 µM |
| C[C@H]1NCc2ccc(NC(=O)c3cc(Cl)cc4[nH]ncc34)cc21 | > 100 µM | > 99.5 µM |
| O=C(Nc1cc(Cl)cc(C(=O)Nc2ccc3c(c2)CNCCO3)c1)OCc1ccccc1 | > 100 µM | > 99.5 µM |
| Cc1ncc(NC(=O)OCc2ccccc2)cc1C(=O)Nc1cccc(CN)c1 | > 100 µM | > 99.5 µM |
